Tests used:
CYP11B2 = CYP11B2 (Homo sapiens (Human), UniProt P19099); test: G-402 cellular enzyme assay, human CYP11B2 (aldosterone release, HTRF); type: cell-based; settings: G-402 cells expressing human CYP11B2, 1 μM Deoxycorticosterone
From the text: (§1) Herein we identified the use of the G-402 cell line as a host cell to ectopically express (transiently or stably) enzymes of the CYP11 family. Specifically we developed stable G-402 cells expressing ectopically human CYP11B1, human CYP11B2, human CYP11A1, cynmolgus CYP11B1 or cynomolgus CYP11B2 enzyme activity. Importantly the identified cell line G-402 expresses co-factors (adrenodoxin and adrenodoxin reductase) important for the activity of the CYP11 family and no relevant enzyme activity of the CYP11 family (in comparison to H295R cells) was detected in these cells. Therefore the G-402 cell line is uniquely suited as a host cell for the ectopic expression of enzymes from the CYP11 family.
(§2) G-402 cells can be obtained from ATCC (CRL-1440) and were originally derived from a renal leiomyoblastoma.
(§3) The expression plasmids contains the ORF for either human/cyno CYP11B1 or CYP11B2 under the control of a suitable promoter (CMV-promoter) and a suitable resistance marker (neomycin). Using standard techniques the expression plasmid is transfected into G-402 cells and these cells are then selected for expressing the given resistance markers. Individual cell-clones are then selected and assessed for displaying the desired enzymatic activity using 11-Deoxycorticosterone (Cyp11B2) or 11-Deoxycortisol (Cyp11B1) as a substrate.
(§4) G-402 cells expressing CYP11 constructs were established as described above and maintained in McCoy's 5a Medium Modified, ATCC Catalog No. 30-2007 containing 10% FCS and 400 μg/ml G418 (Geneticin) at 37° C. under an atmosphere of 5% CO2/95% air. Cellular enzyme assays were performed in DMEM/F12 medium containing 2.5% charcoal treated FCS and appropriate concentration of substrate (0.3-10 uM 11-Deoxycorticosterone, 11-Deoxycortisol or Corticosterone). For assaying enzymatic activity, cells were plated onto 96 well plates and incubated for 16 h. An aliquot of the supernatant is then transferred and analyzed for the concentration of the expected product (Aldosterone for CYP11B2; Cortisol for CYP11B1). The concentrations of these steroids can be determined using HTRF assays from CisBio analyzing either Aldosterone or Cortisol.
(§5) Inhibition of the release of produced steroids can be used as a measure of the respective enzyme inhibition by test compounds added during the cellular enzyme assay. The dose dependent inhibition of enzymatic activity by a compound is calculated by means of plotting added inhibitor concentrations (x-axes) vs. measured steroid/product level (y-axes). The inhibition is then calculated by fitting the following 4-parameter sigmoidal function (Morgan-Mercer-Flodin (MMF) model) to the raw data points using the least squares method:
(§6) [formula] wherein, A is the maximum y value, B is the EC50 factor determined using XLFit, C is the minimum y value and D is the slope value.
(§7) EC50 values for compounds claimed herein were tested with the G402-based assay system described. Cyp11B2 enzyme activity was tested in presence of 1 μM Deoxycorticosterone and variable amounts of inhibitors; Cyp11B1 enzyme activity was tested in presence of 1 μM Deoxycortisol and variable amounts of inhibitors.

human CYP11B1 = human CYP11B1 (Homo sapiens (Human), UniProt P15538); test: G-402 cellular enzyme assay, human CYP11B1 (cortisol release, HTRF); type: cell-based; settings: G-402 cells expressing human CYP11B1, 1 μM Deoxycortisol
Chain of human CYP11B1 (P15538 25-503): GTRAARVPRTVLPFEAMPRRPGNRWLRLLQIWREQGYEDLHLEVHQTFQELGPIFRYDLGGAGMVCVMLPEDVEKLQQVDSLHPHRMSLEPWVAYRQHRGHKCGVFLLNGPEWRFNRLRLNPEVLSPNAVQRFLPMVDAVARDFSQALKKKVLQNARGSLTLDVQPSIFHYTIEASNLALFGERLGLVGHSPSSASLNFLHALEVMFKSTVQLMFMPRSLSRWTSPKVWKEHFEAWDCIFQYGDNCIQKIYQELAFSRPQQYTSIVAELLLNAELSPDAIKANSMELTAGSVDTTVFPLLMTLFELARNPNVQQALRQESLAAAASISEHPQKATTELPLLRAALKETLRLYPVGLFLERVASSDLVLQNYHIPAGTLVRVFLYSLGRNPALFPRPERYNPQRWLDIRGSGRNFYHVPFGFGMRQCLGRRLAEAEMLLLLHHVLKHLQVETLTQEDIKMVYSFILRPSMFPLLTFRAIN
From the text: as §1, §2, §3, §4, §5, §6, §7

Chain of CYP11B2 (P19099 25-503): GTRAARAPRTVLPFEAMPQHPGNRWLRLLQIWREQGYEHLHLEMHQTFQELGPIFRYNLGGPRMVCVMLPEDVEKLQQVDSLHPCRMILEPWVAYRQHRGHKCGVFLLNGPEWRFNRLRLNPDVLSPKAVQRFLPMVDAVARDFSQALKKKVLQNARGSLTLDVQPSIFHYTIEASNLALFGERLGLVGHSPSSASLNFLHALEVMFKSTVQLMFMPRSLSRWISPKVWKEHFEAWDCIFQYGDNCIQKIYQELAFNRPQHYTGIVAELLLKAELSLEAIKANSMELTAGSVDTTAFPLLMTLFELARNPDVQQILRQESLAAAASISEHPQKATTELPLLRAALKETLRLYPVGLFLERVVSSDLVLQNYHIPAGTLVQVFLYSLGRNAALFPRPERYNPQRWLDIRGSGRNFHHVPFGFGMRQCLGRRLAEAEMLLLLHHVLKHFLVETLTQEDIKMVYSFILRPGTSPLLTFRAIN

SMILES	EC50 (CYP11B2) [nM]	EC50 (human CYP11B1) [nM]
Cn1cc(C(=O)N2CC(Nc3cncc(N4C(=O)c5ccc(Cl)cc5C4(C)C)c3)C2)cn1 [Example 24, 5-Chloro-3,3-dimethyl-2-[5-[[1-(1-methylpyrazole-4-carbonyl)azetidin-3-yl]amino]-3-pyridyl]isoindolin-1-one]	1	6020
C[C@H]1c2cc(Cl)ccc2C(=O)N1c1cncc(NC2CN(C(=O)c3ncccc3Cl)C2)c1 (single isomer, unassigned) [Example 28, (3S or 3R)-5-Chloro-2-[5-[[1-(3-chloropyridine-2-carbonyl)azetidin-3-yl]amino]-3-pyridyl]-3-methyl-isoindolin-1-one]	27	533
Cc1ccncc1C(=O)N1CC(Nc2cncc(N3CCc4cc(Cl)ccc4C3=O)c2)C1 [Example 16, 6-Chloro-2-[5-[[1-(4-methylpyridine-3-carbonyl)azetidin-3-yl]amino]pyridin-3-yl]-3,4-dihydroisoquinolin-1-one]	10	5340
Cc1ccncc1C(=O)N1CC2(CC(Nc3cncc(N4C(=O)c5ccc(Cl)cc5C4(C)C)c3)C2)C1 [Example 19, 5-Chloro-3,3-dimethyl-2-[5-[[2-(4-methylpyridine-3-carbonyl)-2-azaspiro[3.3]heptan-6-yl]amino]pyridin-3-yl]isoindol-1-one]	86	10900
CC1(C)c2cc(Cl)ccc2C(=O)N1c1cncc(NC2CCCN(S(=O)(=O)C3CC3)C2)c1 (single isomer, unassigned; (+)) [Example 7, (+)-5-Chloro-2-[5-[[(3R or 3S)-1-cyclopropylsulfonylpiperidin-3-yl]amino]pyridin-3-yl]-3,3-dimethylisoindol-1-one]	230	> 30000
CN(c1cncc(N2C(=O)c3ccc(Cl)cc3C2(C)C)c1)C1CCN(S(=O)(=O)C2CC2)C1 (single isomer, unassigned; (+)) [Example 4, (+)-5-Chloro-2-[5-[[(3R or 3S)-1-cyclopropylsulfonylpyrrolidin-3-yl]-methylamino]pyridin-3-yl]-3,3-dimethylisoindol-1-one]	2	56
CN(c1cncc(N2C(=O)c3ccc(Cl)cc3C2(C)C)c1)C1CCN(S(=O)(=O)C2CC2)CC1 [Example 6]	1	4
Cn1ccnc1C(=O)N1CC(Nc2cncc(N3C(=O)c4ccc(Cl)cc4C3(C)C)c2)C1 [Example 2, 5-Chloro-3,3-dimethyl-2-[5-[[1-(1-methylimidazole-2-carbonyl)azetidin-3-yl]amino]-3-pyridyl]isoindolin-1-one]	4	450
Cn1cc(C(=O)N2CC(Nc3cncc(N4C(=O)c5ccc(C#N)cc5C4(C)C)c3)C2)cn1 [Example 33]	31	29500
Cc1ccncc1C(=O)N1CCC(Nc2cncc(N3C(=O)c4ccc(C#N)cc4C3(C)C)c2)CC1 [Example 37, 3,3-Dimethyl-2[5-[[1-(4-methylpyridine-3-carbonyl)-4-piperidyl]amino]-3-pyridyl]-1-oxo-isoindoline-5-carbonitrile]	70	10500
Cc1ccncc1C(=O)N1CC(Nc2cncc(N3C(=O)c4ccc(C#N)cc4C3(C)C)c2)C1 [Example 32, 3,3-Dimethyl-2-[5-[[1-(4-methylpyridine-3-carbonyl)azetidin-3-yl]amino]-3-pyridyl]-1-oxo-isoindoline-5-carbonitrile]	27	6140
Cc1noc(C)c1C(=O)N1CC(Nc2cncc(N3C(=O)c4ccc(Cl)cc4C3(C)C)c2)C1 [Example 23, 5-Chloro-2-[5-[[1-(3,5-dimethylisoxazole-4-carbonyl)azetidin-3-yl]amino]-3-pyridyl]-3,3-dimethyl-isoindolin-1-one]	30	5950
CC1(C)c2cc(C#N)ccc2C(=O)N1c1cncc(NC2CN(S(=O)(=O)C3CC3)C2)c1 [Example 31, 2-[5-[(1-Cyclopropylsulfonylazetidin-3-yl)amino]-3-pyridyl]-3,3-dimethyl-1-oxo-isoindoline-5-carbonitrile]	12	7000
CC1c2cc(Cl)ccc2C(=O)N1c1cncc(NC2CN(S(=O)(=O)C3CC3)C2)c1 (centres unmarked) [Example 14, 5-Chloro-2-[5-[(1-cyclopropylsulfonylazetidin-3-yl)amino]pyridin-3-yl]-3-methyl-3H-isoindol-1-one]	131	2890
Cn1ccnc1C(=O)N1CC(Nc2cncc(N3C(=O)c4ccc(C#N)cc4C3(C)C)c2)C1 [Example 34, 3,3-Dimethyl-2[5-[[1-(1-methylimidazole-2-carbonyl)azetidin-3-yl]amino]-3-pyridyl]-1-oxo-isoindoline-5-carbonitrile]	5	586
Cc1noc(C)c1C(=O)N1CC(Nc2cncc(N3CCc4cc(Cl)ccc4C3=O)c2)C1 [Example 20, 6-Chloro-2-[5-[[1-(3,5-dimethylisoxazole-4-carbonyl)azetidin-3-yl]amino]-3-pyridyl]-3,4-dihydroisoquinolin-1-one]	55	3880
C[C@@H]1c2cc(Cl)ccc2C(=O)N1c1cncc(NC2CN(S(=O)(=O)C3CC3)C2)c1 (single isomer, unassigned) [Example 29, (3R or 3S)-5-Chloro-2-[5-[(1-cyclopropylsulfonylazetidin-3-yl)amino]-3-pyridyl]-3-methyl-isoindolin-1-one]	29	5810
Cn1ccnc1C(=O)N1CCC(Nc2cncc(N3C(=O)c4ccc(C#N)cc4C3(C)C)c2)CC1 [Example 41, 3,3-Dimethyl-2-[5-[[1-(1-methylimidazole-2-carbonyl)-4-piperidyl]amino]-3-pyridyl]-1-oxo-isoindoline-5-carbonitrile]	17	190
CC1(C)c2cc(C#N)ccc2C(=O)N1c1cncc(NC2CCN(S(=O)(=O)C3CC3)CC2)c1 [Example 35, 2-[5-[(1-Cyclopropylsulfonyl-4-piperidyl)amino]-3-pyridyl]-3,3-dimethyl-1-oxo-isoindoline-5-carbonitrile]	24	13300
Cc1cncc(C(=O)N2CC(Nc3cncc(N4C(=O)c5ccc(Cl)cc5C4(C)C)c3)C2)c1 [Example 11, 5-Chloro-3,3-dimethyl-2-[5-[[1-(5-methylpyridine-3-carbonyl)azetidin-3-yl]amino]pyridin-3-yl]isoindol-1-one]	3	1950
C[C@@H]1c2cc(Cl)ccc2C(=O)N1c1cncc(NC2CN(S(=O)(=O)C3CC3)C2)c1 (single isomer, unassigned) [Example 30, (3S or 3R)-5-Chloro-2-[5-[(1-cyclopropylsulfonylazetidin-3-yl)amino]-3-pyridyl]-3-methyl-isoindolin-1-one]	18	652
Cn1cc(C(=O)N2CC(Nc3cncc(N4CCc5cc(Cl)ccc5C4=O)c3)C2)cn1 [Example 21, 6-Chloro-2-[5-[[1-(1-methylpyrazole-4-carbonyl)azetidin-3-yl]amino]-3-pyridyl]-3,4-dihydroisoquinolin-1-one]	7	16900
Cn1cncc1C(=O)N1CCC(Nc2cncc(N3C(=O)c4ccc(C#N)cc4C3(C)C)c2)CC1 [Example 42, 3,3-Dimethyl-2-[5-[[1-(3-methylimidazole-4-carbonyl)-4-piperidyl]amino]-3-pyridyl]-1-oxo-isoindoline-5-carbonitrile]	56	10600
Cc1ccncc1C(=O)N1CC(Nc2cncc(N3C(=O)c4ccc(Cl)cc4C3C)c2)C1 (centres unmarked) [Example 13, 5-Chloro-3-methyl-2-[5-[[1-(4-methylpyridine-3-carbonyl)azetidin-3-yl]amino]pyridin-3-yl]-3H-isoindol-1-one]	7	4900
CC1(C)c2cc(Cl)ccc2C(=O)N1c1cncc(NC2CN(S(=O)(=O)C3CC3)C2)c1 [Example 1, 5-Chloro-2-[5-[(1-cyclopropylsulfonylazetidin-3-yl)amino]pyridin-3-yl]-3,3-dimethylisoindol-1-one]	9	1250
